In one data set the target is T1, Beta-secretase 2 (Homo sapiens, UniProt Q9Y5Z0).
T1 sequence (Q9Y5Z0 whole entry): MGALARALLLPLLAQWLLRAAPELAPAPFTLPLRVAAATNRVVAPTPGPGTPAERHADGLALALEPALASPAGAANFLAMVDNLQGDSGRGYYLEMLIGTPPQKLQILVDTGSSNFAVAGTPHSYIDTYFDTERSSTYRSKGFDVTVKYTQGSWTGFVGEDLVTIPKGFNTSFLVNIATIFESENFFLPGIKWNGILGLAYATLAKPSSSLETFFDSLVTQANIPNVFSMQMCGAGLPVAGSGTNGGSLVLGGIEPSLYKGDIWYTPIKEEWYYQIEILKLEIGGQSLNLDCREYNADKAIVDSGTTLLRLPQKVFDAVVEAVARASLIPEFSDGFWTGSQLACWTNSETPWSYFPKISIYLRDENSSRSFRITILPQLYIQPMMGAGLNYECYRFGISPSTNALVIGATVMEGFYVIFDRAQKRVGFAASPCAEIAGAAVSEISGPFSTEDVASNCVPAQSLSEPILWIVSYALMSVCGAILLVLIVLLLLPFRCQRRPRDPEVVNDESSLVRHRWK
Kind of data set: Inhibition of BACE2.

A further data set deals with Cathepsin D (Homo sapiens, UniProt P07339).
Sequence of Cathepsin D (P07339 65-162 limits assumed): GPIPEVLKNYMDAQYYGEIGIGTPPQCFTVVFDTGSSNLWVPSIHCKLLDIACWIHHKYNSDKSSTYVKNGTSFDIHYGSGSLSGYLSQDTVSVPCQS
Sequence of Cathepsin D (P07339 169-412 limits assumed): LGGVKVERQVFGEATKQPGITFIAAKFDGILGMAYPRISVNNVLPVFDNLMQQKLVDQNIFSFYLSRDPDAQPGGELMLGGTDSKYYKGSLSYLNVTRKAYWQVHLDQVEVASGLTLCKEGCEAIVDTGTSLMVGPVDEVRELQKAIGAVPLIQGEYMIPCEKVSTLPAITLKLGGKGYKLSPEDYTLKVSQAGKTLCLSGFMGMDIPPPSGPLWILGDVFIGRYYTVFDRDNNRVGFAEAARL
The next data set concerns the target T2, Renin (Homo sapiens, UniProt P00797).
T2 sequence (P00797 whole entry): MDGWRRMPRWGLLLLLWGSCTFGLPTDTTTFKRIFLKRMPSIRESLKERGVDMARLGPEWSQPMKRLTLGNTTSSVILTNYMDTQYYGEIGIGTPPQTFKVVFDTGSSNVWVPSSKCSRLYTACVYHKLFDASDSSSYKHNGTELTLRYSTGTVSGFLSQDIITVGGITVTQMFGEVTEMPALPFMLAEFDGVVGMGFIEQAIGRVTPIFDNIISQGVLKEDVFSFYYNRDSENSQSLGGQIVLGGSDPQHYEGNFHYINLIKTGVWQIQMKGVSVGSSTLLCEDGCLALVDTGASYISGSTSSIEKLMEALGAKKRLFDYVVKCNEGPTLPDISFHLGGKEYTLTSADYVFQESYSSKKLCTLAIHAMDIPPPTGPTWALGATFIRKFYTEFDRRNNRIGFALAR
Kind of data set: Inhibition of renin.

The nature of the next data set: in vitro. To be noted: human, LLC-PK1.
For another data set, the system named is Brain. The experiment in a line: Drug level in mouse brain at 30 mg/kg, ip after 2 hrs. Type of data set: ADME, organism-based. Further details: dose 30 mg/kg, route intraperitoneal. To be noted: in vivo.

Description for Cathepsin D: Inhibition of cathepsin D
Description for in vitro: Apparent permeability across L-MDR1 cells

As to `CCCN(c1cc2cc(c1)C(=O)N[C@@H](c1ccccc1)CCc1cccc(c1)C[C@@](C)(N)COC2)S(C)(=O)=O`, the IC50 is 1.6 µM on Beta-secretase 2, 275 µM at Cathepsin D and 144 µM against Renin.

In “in vitro”, `CN(c1cc2cc(c1)C(=O)N[C@@H](c1ccccc1)CCc1cccc(c1)C[C@@](C)(N)C(=O)OC2)S(=O)(=O)C(F)(F)F` displayed a Papp of 13 ×10⁻⁶ cm/s.

`C[C@@]1(N)Cc2cccc(c2)CC[C@H](c2ccccc2)NC(=O)c2cc(Br)cc(c2)COC1=O` gave a Papp in “in vitro” of 9 ×10⁻⁶ cm/s.

`C[C@@]1(N)Cc2ccc(F)c(c2)CC[C@H](c2ccc(F)cc2)NC(=O)c2cc(cc(-c3ccccc3C#N)c2)COC1=O` showed an apparent permeability coefficient (Papp) in the data set “in vitro” of 9 ×10⁻⁶ cm/s.

The molecule `C[C@@]1(N)Cc2cccc(c2)CC[C@H](c2ccc(F)cc2)NC(=O)c2cc(cc(-c3cccc(F)c3C#N)c2)COC1=O` registered a Papp in “in vitro” of 7 ×10⁻⁶ cm/s.

For the molecule `C[C@@]1(N)Cc2ccc(F)c(c2)CC[C@H](c2ccc(F)cc2)NC(=O)c2cc(cc(-c3cccc(F)c3C#N)c2)COC1=O`, the Papp in the data set “in vitro” is 6 ×10⁻⁶ cm/s.

`CN(c1cc2cc(c1)C(=O)N[C@@H](c1ccccc1)CCc1cccc(c1)C[C@@](C)(N)C(=O)OC2)S(C)(=O)=O`: the Papp in “in vitro” is 9 ×10⁻⁶ cm/s.

In the case of `CCCN(c1cc2cc(c1)C(=O)N[C@@H](c1ccccc1)CCc1cccc(c1)C[C@@](C)(N)C(=O)OC2)S(C)(=O)=O`, the results for the IC50 against Beta-secretase 2, against Cathepsin D and against Renin were 54 µM, 97 µM and 169 µM, respectively.

In the data set “in vitro”, `C[C@@]1(N)Cc2cccc(c2)CC[C@H](c2ccccc2)NC(=O)c2cc(cc(-c3ccccc3C#N)c2)COC1=O` returned an apparent permeability (Papp) of 9 ×10⁻⁶ cm/s. In the data set with Brain, this molecule gave an Activity of 16%. Besides, the concentration for half-maximal inhibition (IC50) on Beta-secretase 2 is 41 µM; on Cathepsin D it was 48 µM; against Renin it was 275 µM.

As for `C[C@@]1(N)Cc2cccc(c2F)CC[C@H](c2ccc(F)cc2)NC(=O)c2cc(cc(-c3ccccc3C#N)c2)COC1=O`, in “in vitro”, the apparent permeability coefficient (Papp) amounted to 6 ×10⁻⁶ cm/s.

In turn, `CN(c1cc2cc(c1)C(=O)N[C@@H](c1ccccc1)CCc1cccc(c1)C[C@@](C)(N)C(=O)OC2)S(=O)(=O)CC(F)(F)F` came in with a Papp in the data set “in vitro” of 12 ×10⁻⁶ cm/s. This Papp is about 2-fold higher than that of the molecule before.

Regarding `CN(C)S(=O)(=O)N(C)c1cc2cc(c1)C(=O)N[C@@H](c1ccccc1)CCc1cccc(c1)C[C@@](C)(N)C(=O)OC2`, the apparent permeability coefficient (Papp) in “in vitro” is 15 ×10⁻⁶ cm/s. This Papp and that of the molecule before are within 1.5-fold of each other.

Values taken from ChEMBL document CHEMBL1139967, “Design, synthesis, and SAR of macrocyclic tertiary carbinamine BACE-1 inhibitors” (Bioorg Med Chem Lett, 2007).
